Drawing on patent US20050197350A1, “Novel quinoline, tetrahydroquinazoline, and pyrimidine derivatives and methods of treatment related to the use thereof” (TAISHO PHARMACEUTICAL CO., LTD., priority 2003, published 2005), this text covers class for 37 molecules.

For this assay, the system named is MCH receptors. Kind of assay: MCH receptor activity class (method not given).
[1] abbreviates: MCH receptor, class by percent of control at 10^-7 M or IC50.
Where [2] appears, read: activity class 1-3: percent of control at 10^-7 M or IC50.
The mark [3] stands for this setting: class by percent of control at 10^-7 M or IC50.
The mark [4] stands for this setting: activity class per percent of control at 10^-7 M or IC50.
The mark [5] stands for this setting: class by percent of control at 10^−7 M or IC50.
The mark [6] stands for this setting: class 1-3 by percent of control at 10^-7 M or IC50.

Each structure is given as a SMILES string.

Consider `CN(C)c1cc(N[C@H]2CC[C@@H](NC(=O)c3cccc(C(F)(F)F)c3)CC2)nc2ccccc12` [compound 116], for which the class under setting [1] is 3 (Class 3 The value of percent of control at 10^−7 M was more than 60% or the value of IC50 was more than 200 nM.).

On to `CN(C)c1ccnc(N[C@H]2CC[C@@H](CNCCCCCCCCc3ccccc3)CC2)n1` [compound 1528], for which, under setting [2], the class is on record as 3 (Class 3 The value of percent of control at 10^−7 M was more than 60% or the value of IC50 was more than 200 nM.).

Turning to `C[C@@H](CNC[C@H]1CC[C@@H](Nc2cc(N(C)C)c3ccccc3n2)CC1)N(Cc1ccccc1)Cc1ccccc1` [compound 1477], under setting [3], the class was 3 (Class 3 The value of percent of control at 10^−7 M was more than 60% or the value of IC50 was more than 200 nM.).

With `CN(C)c1nc(N[C@H]2CC[C@@H](NC(=O)Cc3sc(-c4ccccc4)nc3-c3ccc(Cl)cc3)CC2)nc2c1CCCC2` [compound 1037], the class under setting [4] is listed as 3 (Class 3 The value of percent of control at 10^−7 M was more than 60% or the value of IC50 was more than 200 nM.).

For `CN(C)c1cc(N[C@H]2CC[C@@H](NC(=O)Nc3ccc(F)cc3)CC2)nc2ccccc12` [compound 2094], the class under setting [3] is recorded as 3 (Class 3 The value of percent of control at 10^−7 M was more than 60% or the value of IC50 was more than 200 nM.).

With `CN(C)c1cc(N[C@H]2CC[C@@H](CNC(=O)c3cc(C(C)(C)C)nn3C)CC2)nc2ccccc12` [compound 213], under setting [1], the class is recorded as 3 (Class 3 The value of percent of control at 10^−7 M was more than 60% or the value of IC50 was more than 200 nM.).

With `CN(C)c1cc(N[C@H]2CC[C@@H](CNC(=O)C(Cc3ccccc3)c3ccccc3)CC2)nc2ccccc12` (relative stereo) [compound 793], the class under setting [3] is on record as 3 (Class 3 The value of percent of control at 10^−7 M was more than 60% or the value of IC50 was more than 200 nM.).

Turning to `CN(C)c1cc(N[C@H]2CC[C@@H](NC(=O)c3cccc4ccccc34)CC2)nc2ccccc12` [compound 109], the class under setting [1] is given as 3 (Class 3 The value of percent of control at 10^−7 M was more than 60% or the value of IC50 was more than 200 nM.).

Regarding `COC(=O)c1ccc(NC(=S)N[C@H]2CC[C@@H](Nc3nc4c(c(N(C)C)n3)CCCC4)CC2)cc1` [compound 2019], under setting [1], the class is given as 3 (Class 3 The value of percent of control at 10^−7 M was more than 60% or the value of IC50 was more than 200 nM.).

Regarding `CN(C)c1nc(N[C@H]2CC[C@@H](NC(=O)c3ccc4ncsc4c3)CC2)nc2c1CCCC2` [compound 1054], under setting [4], the class was 3 (Class 3 The value of percent of control at 10^−7 M was more than 60% or the value of IC50 was more than 200 nM.).

As for `Cc1ccc(C2(C(=O)N[C@H]3CC[C@@H](Nc4ncc(C)c(N(C)C)n4)CC3)CC2)cc1` [compound 2873], the class under setting [5] is recorded as 1 (Class 1: The value of percent of control at 10^−7 M was less than 40% or the value of IC50 was less than 50 nM.).

Regarding `CN(C)c1ccnc(N[C@H]2CC[C@@H](NC(=O)c3cc(C(C)(C)C)c(O)c(C(C)(C)C)c3)CC2)n1` [compound 924], the class under setting [3] is on record as 1 (Class 1: The value of percent of control at 10^−7 M was less than 40% or the value of IC50 was less than 50 nM.).

Regarding `Cc1oc(-c2ccccc2)cc1CNC[C@H]1CC[C@@H](Nc2nccc(N(C)C)n2)CC1` [compound 1313], the class under setting [3] is 3 (Class 3 The value of percent of control at 10^−7 M was more than 60% or the value of IC50 was more than 200 nM.).

`Cc1cc(N(C)C)nc(N[C@H]2CC[C@@H](NC(=O)c3ccc(Cl)c(Cl)c3)CC2)n1` [compound 2994, 3,4-dichloro-N-(cis-4-{[4-(dimethylamino)-6-methylpyrimidin-2-yl]amino}cyclohexyl)benzamide]: the class under setting [5] was 1 (Class 1: The value of percent of control at 10^−7 M was less than 40% or the value of IC50 was less than 50 nM.).

On to `Cc1cnc(N[C@H]2CC[C@@H](NCc3cccc(OC(F)(F)F)c3)CC2)nc1N(C)C` [compound 3004], for which the class under setting [5] is 3 (Class 3 The value of percent of control at 10^−7 M was more than 60% or the value of IC50 was more than 200 nM.).

On to `CN(C)c1nc(N[C@H]2CC[C@@H](NC(=O)c3ccccc3Oc3ccccc3)CC2)nc2c1CCCC2` [compound 1030], for which the class under setting [4] is given as 1 (Class 1: The value of percent of control at 10^−7 M was less than 40% or the value of IC50 was less than 50 nM.).

With `Cc1ccc(F)cc1NC(=O)N[C@H]1CC[C@@H](Nc2nc3c(c(N(C)C)n2)CCCC3)CC1` [compound 1902], the class under setting [1] was 3 (Class 3 The value of percent of control at 10^−7 M was more than 60% or the value of IC50 was more than 200 nM.).

Turning to `COc1cc(OC)cc(C(=O)NC[C@H]2CC[C@@H](Nc3cc(N(C)C)c4ccccc4n3)CC2)c1` [compound 203, N-[(cis-4-{[4-(dimethylamino)quinolin-2-yl]amino}cyclohexyl)methyl]-3,5-dimethoxybenzamide], the class under setting [1] was 3 (Class 3 The value of percent of control at 10^−7 M was more than 60% or the value of IC50 was more than 200 nM.).

Turning to `CN(C)c1nc(N[C@H]2CC[C@@H](CNCc3cccc(Br)c3)CC2)nc2c1CCCC2` [compound 1385], the class under setting [3] was 3 (Class 3 The value of percent of control at 10^−7 M was more than 60% or the value of IC50 was more than 200 nM.).

As to `CN(C)c1ccnc(N[C@H]2CC[C@@H](NC(=O)Oc3cccc(C(F)(F)F)c3)CC2)n1` [compound 1622], the class under setting [2] is 3 (Class 3 The value of percent of control at 10^−7 M was more than 60% or the value of IC50 was more than 200 nM.).

`COc1cc(F)c(CNC[C@H]2CC[C@@H](Nc3cc(N(C)C)c4ccccc4n3)CC2)cc1OC` [compound 1200]: under setting [3], the class is 3 (Class 3 The value of percent of control at 10^−7 M was more than 60% or the value of IC50 was more than 200 nM.).

With `CN(C)c1nc(N[C@H]2CC[C@@H](CNCc3ccc(Cl)cc3)CC2)nc2c1CCCC2` [compound 1391], the class under setting [3] is on record as 3 (Class 3 The value of percent of control at 10^−7 M was more than 60% or the value of IC50 was more than 200 nM.).

As to `COc1cc(CN[C@H]2CC[C@@H](Nc3nccc(N(C)C)n3)CC2)cc(I)c1O` [compound 1222], the class under setting [3] was 3 (Class 3 The value of percent of control at 10^−7 M was more than 60% or the value of IC50 was more than 200 nM.).

In the case of `CN(C)c1ccnc(N[C@H]2CC[C@@H](CNC(=O)Cc3cccc4ccccc34)CC2)n1` [compound 434], the class under setting [6] is 1 (Class 1: The value of percent of control at 10^−7 M was less than 40% or the value of IC50 was less than 50 nM.).

With `Cc1cc([N+](=O)[O-])ccc1NC(=S)N[C@H]1CC[C@@H](Nc2nc3c(c(N(C)C)n2)CCCC3)CC1` [compound 1771], under setting [3], the class is 3 (Class 3 The value of percent of control at 10^−7 M was more than 60% or the value of IC50 was more than 200 nM.).

Take `Cc1cnc(N[C@H]2CC[C@@H](NC(=O)CN(C)c3ccc(Cl)cc3)CC2)nc1N(C)C` [compound 2945]: the class under setting [5] is 1 (Class 1: The value of percent of control at 10^−7 M was less than 40% or the value of IC50 was less than 50 nM.).

On to `COc1ccc(C)cc1NC(=S)N[C@H]1CC[C@@H](Nc2cc(N(C)C)c3ccccc3n2)CC1` [compound 2270], for which the class under setting [3] is 3 (Class 3 The value of percent of control at 10^−7 M was more than 60% or the value of IC50 was more than 200 nM.).

As to `CCOc1cc(CNC[C@H]2CC[C@@H](Nc3nccc(N(C)C)n3)CC2)ccc1O` [compound 1280], under setting [3], the class was 2 (Class 2: The value of percent of control at 10^−7 M was from 40% to 60% or the value of IC′50 was from 50 nM to 200 nM.).

Regarding `CCc1ccccc1NC(=S)N[C@H]1CC[C@@H](Nc2nc3c(c(N(C)C)n2)CCCC3)CC1` [compound 1748], the class under setting [3] was 3 (Class 3 The value of percent of control at 10^−7 M was more than 60% or the value of IC50 was more than 200 nM.).

With `COc1cc(CNC[C@H]2CC[C@@H](Nc3cc(N(C)C)c4ccccc4n3)CC2)cc(F)c1O` [compound 1199], the class under setting [3] is recorded as 3 (Class 3 The value of percent of control at 10^−7 M was more than 60% or the value of IC50 was more than 200 nM.).

With `CN(C)c1cc(N[C@H]2CC[C@@H](NCc3cncc(-c4ccc(F)cc4)c3)CC2)nc2ccccc12` [compound 1114], the class under setting [4] was 3 (Class 3 The value of percent of control at 10^−7 M was more than 60% or the value of IC50 was more than 200 nM.).

On to `CN(C)c1ccnc(N[C@H]2CC[C@@H](CNC(=O)c3cncc(Br)c3)CC2)n1` [compound 433], for which the class under setting [6] is reported as 3 (Class 3 The value of percent of control at 10^−7 M was more than 60% or the value of IC50 was more than 200 nM.).

Take `Cc1cc(N(C)C)nc(NC2CCC(NC(=O)c3cccc([N+](=O)[O-])c3)CC2)n1` (stereo not shown) [compound 2992, N-(4-{[4-(dimethylamino)-6-methylpyrimidin-2-yl]amino}cyclohexyl)-3-nitrobenzamide]: the class under setting [5] is 1 (Class 1: The value of percent of control at 10^−7 M was less than 40% or the value of IC50 was less than 50 nM.).

For the molecule `COc1ccc(Oc2ccc([N+](=O)[O-])cc2C(=O)N[C@H]2CC[C@@H](Nc3cc(N(C)C)c4ccccc4n3)CC2)cc1` [compound 108, N-(cis-4-{[4-(dimethylamino)quinolin-2-yl]amino}cyclohexyl)-2-(4-methoxyphenoxy)-5-nitrobenzamide], the class under setting [1] is listed as 1 (Class 1: The value of percent of control at 10^−7 M was less than 40% or the value of IC50 was less than 50 nM.).

As to `CCCCCNC(=O)N[C@H]1CC[C@@H](Nc2nc3c(c(N(C)C)n2)CCCC3)CC1` [compound 1703], under setting [2], the class is given as 3 (Class 3 The value of percent of control at 10^−7 M was more than 60% or the value of IC50 was more than 200 nM.).

For `CSc1ccc(NC(=O)N[C@H]2CC[C@@H](Nc3cc(N(C)C)c4ccccc4n3)CC2)cc1` [compound 2095], the class under setting [3] is reported as 3 (Class 3 The value of percent of control at 10^−7 M was more than 60% or the value of IC50 was more than 200 nM.).

For `CN(C)c1nc(N[C@H]2CC[C@@H](NC(=O)Cc3c(Cl)ccc(Cl)c3Cl)CC2)nc2c1CCCC2` [compound 950], under setting [3], the class is on record as 2 (Class 2: The value of percent of control at 10^−7 M was from 40% to 60% or the value of IC′50 was from 50 nM to 200 nM.).
